Laboratory results published in article PMC3169562, “The Hedgehog Receptor Patched Is Involved in Cholesterol Transport” (PLoS ONE, 2011).

What was measured:
[1] = target: T1, human Patched (hPtc) (Homo sapiens, UniProt Q13635); experiment: SPR (Biacore): purified hPtc injected over thiocholesterol covalently coupled to a CM5 chip; Myodulin as negative control; type: binding; parameters: gene PTCH1
T1 sequence (Q13635 1-1447): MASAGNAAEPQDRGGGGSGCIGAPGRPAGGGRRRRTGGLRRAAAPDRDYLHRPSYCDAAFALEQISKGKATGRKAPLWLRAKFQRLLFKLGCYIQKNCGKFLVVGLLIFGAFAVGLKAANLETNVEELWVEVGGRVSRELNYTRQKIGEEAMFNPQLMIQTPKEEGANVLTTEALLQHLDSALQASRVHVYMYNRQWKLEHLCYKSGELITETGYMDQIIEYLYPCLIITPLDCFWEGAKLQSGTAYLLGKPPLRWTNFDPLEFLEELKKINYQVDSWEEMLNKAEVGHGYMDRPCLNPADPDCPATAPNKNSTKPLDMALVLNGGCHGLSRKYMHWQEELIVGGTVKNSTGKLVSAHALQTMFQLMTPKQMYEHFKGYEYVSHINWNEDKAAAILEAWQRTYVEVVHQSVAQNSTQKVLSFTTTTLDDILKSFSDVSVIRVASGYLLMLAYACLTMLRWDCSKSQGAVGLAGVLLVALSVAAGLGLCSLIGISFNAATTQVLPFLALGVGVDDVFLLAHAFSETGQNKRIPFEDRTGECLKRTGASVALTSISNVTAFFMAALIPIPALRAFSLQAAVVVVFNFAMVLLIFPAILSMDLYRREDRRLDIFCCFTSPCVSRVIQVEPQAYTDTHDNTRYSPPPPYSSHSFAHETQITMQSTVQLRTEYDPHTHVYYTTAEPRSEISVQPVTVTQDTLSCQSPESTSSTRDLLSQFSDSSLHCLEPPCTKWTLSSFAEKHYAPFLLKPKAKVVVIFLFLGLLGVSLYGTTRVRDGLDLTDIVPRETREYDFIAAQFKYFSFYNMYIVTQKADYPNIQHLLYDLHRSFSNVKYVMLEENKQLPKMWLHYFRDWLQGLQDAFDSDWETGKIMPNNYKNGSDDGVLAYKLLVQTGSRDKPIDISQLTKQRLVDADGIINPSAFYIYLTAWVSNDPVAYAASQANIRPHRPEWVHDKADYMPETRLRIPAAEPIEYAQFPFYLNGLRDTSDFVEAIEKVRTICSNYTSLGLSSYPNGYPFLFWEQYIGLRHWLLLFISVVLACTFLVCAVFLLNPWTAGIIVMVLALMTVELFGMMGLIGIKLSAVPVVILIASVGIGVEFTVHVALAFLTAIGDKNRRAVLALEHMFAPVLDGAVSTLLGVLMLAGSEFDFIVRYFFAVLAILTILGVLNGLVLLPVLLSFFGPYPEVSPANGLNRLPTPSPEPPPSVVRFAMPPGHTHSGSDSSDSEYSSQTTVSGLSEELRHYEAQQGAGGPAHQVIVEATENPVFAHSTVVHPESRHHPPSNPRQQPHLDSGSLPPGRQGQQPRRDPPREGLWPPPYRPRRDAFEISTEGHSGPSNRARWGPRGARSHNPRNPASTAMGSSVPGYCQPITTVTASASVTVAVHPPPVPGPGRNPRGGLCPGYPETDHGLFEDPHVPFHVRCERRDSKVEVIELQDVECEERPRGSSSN

[2] = target: T1, human Patched (hPtc); experiment: fluorescent sterol efflux from yeast over-expressing hPtc versus Myodulin or hSmo controls; type: cell-based; parameters: gene PTCH1; hPtc-MAP over-expressed in S. cerevisiae

| Structure (SMILES) | SPR (Biacore): purified hPtc injected over thiocholesterol covalently coupled to [1] | % increase of efflux [2] |
| --- | --- | --- |
| CC(C)CCC[C@@H](C)[C@H]1CC[C@H]2[C@@H]3CC=C4C[C@@H](O)CC[C@]4(C)[C@H]3CC[C@]12C [cholesterol] | showed a clear binding of hPtc to cholesterol coupled on the fc in comparison with Myo | – |
| CC1=CC(C)=[N+]2C1=C(CC[C@@H](C)[C@H]1CC[C@H]3[C@@H]4CC=C5C[C@@H](O)CC[C@]5(C)[C@H]4CC[C@]13C)c1c(C)cc(C)n1[B-]2(F)F [BODIPY-cholesterol] | – | ~ 88 % increase of efflux |
